In PMC12250129, “Exploring the Therapeutic Potential of ^177Lu-PSMA-617 in a Mouse Model of Prostate Cancer Bone Metastases” (International Journal of Molecular Sciences, 2025):

How the values were obtained:
PSMA = target: T1, PSMA (Homo sapiens, UniProt Q04609); test: Saturation binding assay on intact LNCaP cells; details: 1 h at 4 °C
T1 construct: host or cells: LNCaP human prostate cancer cells
Experimental: The competitive inhibition assay was performed in 10^5 LNCaP cells/well as previously described. The radioligand (^177Lu-PSMA-617) was added as a 0.75 nM solution to 10 different concentrations of non-labeled, ^natLu-labeled PSMA-617 (from 0.01 to 10,000 nM). After 1 h of incubation at 4 °C, the cells were washed with ice-cold PBS, and the cell-bound radioactivity was measured in a gamma counter (PerkinElmer, Waltham, MA, USA). The IC50 (half-maximal inhibitory concentration) value was determined using GraphPad Prism version 5.0 (Graph Pad Software, San Diego, CA, USA). Determination of the dissociation constants (Kd values) was performed by saturation binding assays using LNCaP cells. A total of 10^5 cells were seeded in 96-well plates (cells in 100 µL of the RPMI medium/well), allowing adhesion and growth overnight at 37 °C and 5% CO2. […] The Kd values were determined by plotting specific binding (total binding minus unspecific binding) against the molar concentration of the added radioligands followed by nonlinear regression analysis using the GraphPad Prism 5 software. The binding affinity (Ki) of ^177/natLu-PSMA-617 was calculated using the following formula as described previously: Ki = IC50/[1 + ([radioligand]/Kd)].

[1] = set-up: method as in PMID 25573634; details: over 96 h; cited from earlier work
[2] = tested on: bone metastases of LNCaP-luc prostate cancer; test: Biodistribution in mice with bone metastases of LNCaP-luc prostate cancer (gamma counter); assay type: in vivo, mouse
Experimental: An in vivo imaging system was used for bioluminescence imaging (BLI) to visualize ASID mice with bone metastases of LNCaP-luc prostate cancer before the administration of ^177Lu-PSMA-617 (Figure 4A). Subsequently, ^177Lu-PSMA-617 (~37 MBq of Lu-177) was administered intravenously to mice with bone metastases, and NanoSPECT/CT imaging was performed at 4, 24, and 48 h post-administration (Figure 4B). Additionally, the mice were sacrificed, and their organs and tissues were extracted for quantitative analysis using a gamma counter at 1, 4, 24, and 48 h after injection (Figure 4C).
LNCaP-luc cells were harvested from culture and resuspended to 2 × 10^7 cells/mL in PBS. The cells were combined with an equal volume of Matrigel (BD Biosciences, Bedford, MA, USA) such that 5 × 10^5 cells were prepared for injection into the right tibia of anesthetized (inhaled anesthetic of 1–2% isoflurane) ASID mice. Intratibial injections were performed using a 29-gauge, 0.5-inch needle inserted through the tibial plateau of the flexed knee as described previously. The tumor was imaged, detected, and measured using a Bruker Small Animal Optical Imaging System (In Vivo Xtreme; Billerica, MA, USA). Mice were anesthetized with a mixture of oxygen and isoflurane, then intraperitoneally injected with 100 μL of D-luciferin (Xenogen; 30 mg/mL in PBS).
Mice received an intravenous injection of ^177Lu-PSMA-617 (equivalent to 37 MBq of ^177Lu) at 45 days after tumor implantation. The NanoSPECT/CT (Mediso Medical Imaging Systems, Arlington, VA, USA) was used to image in vivo. After the administration of ^177Lu-PSMA-617, mice inhaled an anesthetic containing 1–2% isoflurane during imaging acquisition. SPECT and X-ray CT images were obtained at 1, 4, 24, and 48 h after injection. NanoSPECT imaging was acquired using nine multipinhole gamma detectors and high-resolution collimators. The energy window was set to […] ± 10%; the image size was set to 256 × 256, and the field of view of 60 mm × 100 mm was used. Mice received an intravenous injection of ^177Lu-PSMA-617 (equivalent to 37 MBq of ^177Lu) at 45 days after tumor implantation. The distribution of ^177Lu-PSMA-617 in the mice bearing tumors was evaluated by a gamma counter (PerkinElmer, Waltham, MA, USA). The mice were sacrificed by carbon dioxide euthanasia at 1, 4, 24, and 48 h after administration. The blood, tumor, and normal organ/tissue were collected, and the uptake of radioactivity was measured by a gamma counter. The distribution data obtained using radioactivity count methods are plotted as %ID/g.

PSMA-negative PC-3 cells = test: Cell surface binding and internalization, PC-3 cells; assay type: cell-based, human
Experimental: Cell surface binding and internalization experiments were performed with ^177Lu-PSMA-617 using PSMA-positive LNCaP cells and PSMA-negative PC-3 cells in order to determine if the uptake of ^177Lu-PSMA-617 was PSMA-specific. For this purpose, cells were seeded in 24-well plates (10^5 cells in 1 mL of the RPMI medium/well), allowing adhesion and growth overnight at 37 °C. After the removal of the supernatant, cells were washed once with PBS prior to the addition of the RPMI medium without supplements, followed by the addition of the radiolabeled ^177Lu-PSMA-617 (in MBq/nmol) to each well. The well plates were incubated at 37 °C for 1, 2, and 4 h, respectively. The cells were washed three times with ice-cold PBS to determine the total uptake of ^177Lu-PSMA-617. The internalized fraction of ^177Lu-PSMA-617 was determined in cells which were washed with ice-cold PBS, then incubated for 10 min with acidic stripping buffer (50 mM glycine, pH 2.8) followed by an additional washing step with ice-cold PBS. Cell samples were lysed by the addition of NaOH (1 N, 1 mL) to each well. The samples of the cell suspensions were measured in a γ-counter (PerkinElmer, Waltham, MA, USA).

T1 sequence (Q04609 whole entry): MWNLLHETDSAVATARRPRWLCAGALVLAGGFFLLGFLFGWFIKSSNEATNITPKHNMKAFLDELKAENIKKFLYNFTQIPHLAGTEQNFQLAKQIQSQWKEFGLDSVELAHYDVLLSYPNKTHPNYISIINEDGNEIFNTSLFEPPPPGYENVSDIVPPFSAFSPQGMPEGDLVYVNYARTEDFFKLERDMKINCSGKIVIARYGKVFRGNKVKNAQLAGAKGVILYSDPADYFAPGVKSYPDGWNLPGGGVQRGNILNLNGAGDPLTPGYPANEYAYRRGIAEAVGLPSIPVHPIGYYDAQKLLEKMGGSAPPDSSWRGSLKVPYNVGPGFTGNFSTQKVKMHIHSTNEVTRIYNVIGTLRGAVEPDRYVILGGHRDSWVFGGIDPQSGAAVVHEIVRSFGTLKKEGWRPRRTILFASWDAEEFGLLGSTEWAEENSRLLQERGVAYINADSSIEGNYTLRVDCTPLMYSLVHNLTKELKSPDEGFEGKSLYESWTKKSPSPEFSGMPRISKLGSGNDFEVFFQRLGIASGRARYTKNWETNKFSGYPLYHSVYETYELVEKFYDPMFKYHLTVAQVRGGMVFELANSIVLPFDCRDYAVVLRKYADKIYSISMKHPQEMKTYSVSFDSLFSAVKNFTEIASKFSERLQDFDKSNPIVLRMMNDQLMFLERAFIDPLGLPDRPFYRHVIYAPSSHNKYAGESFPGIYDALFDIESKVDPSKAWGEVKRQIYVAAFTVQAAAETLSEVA

For `O=C([O-])CN1CCN(CC(=O)[O-])CCN(CC(=O)NCC2CCC(C(=O)N[C@@H](Cc3ccc4ccccc4c3)C(=O)NCCCC[C@H](NC(=O)N[C@@H](CCC(=O)O)C(=O)O)C(=O)O)CC2)CCN(CC(=O)[O-])CC1.[177Lu+3]` (stereo partly drawn) [^177Lu-PSMA-617], the Kd (PSMA) is given as 4.36 ± 0.664 nM, the “stability in human serum” value [1] is given as over 95% and the tumor-to-blood ratio ([2]; 1 h post-injection) is given as 69.5. The tumor-to-kidney ratio ([2]; 1 h post-injection) was 0.3, the tumor-to-muscle ratio ([2]; 1 h post-injection) was 60.2 and the uptake in kidneys ([2]; 1 h post-injection, i.v., ~37 MBq) was 43.83 ± 3.41 %IA/g. For the same compound, the “uptake in LNCaP tumors” value ([2]; 4 h post-injection, i.v., ~37 MBq) was 23.31 ± 0.94 %IA/g, the tumor-to-blood ratio ([2]; 24 h post-injection (maximum)) was 434.4 and the tumor-to-muscle ratio ([2]; 24 h post-injection (peak)) was 857.4. The “uptake in LNCaP tumors” value ([2]; 24 h post-injection, i.v., ~37 MBq) was 12.88 ± 0.55 %IA/g, the tumor-to-kidney ratio ([2]; 48 h post-injection (maximum)) was 26.3 and the “uptake in liver, lungs and spleen” value ([2]; i.v., ~37 MBq) was “low uptake”. For the same compound, the urinary clearance ([2]; within 24 h) was over 90%, the internalization (PSMA-negative PC-3 cells) was under 0.1 % IA/10^6 cells and the surface binding (PSMA-negative PC-3 cells) was at most 1.7 % IA/10^6 cells.
